According to ChEMBL document CHEMBL3286315, “Retinoic acid receptor agonist activity of naturally occurring diterpenes” (Bioorg Med Chem, 2014):
Activity calls are given as the source filed them. The calls are words filed in the database; no cut-off is given here.

Experiments:
Assay type in all cases: cell-based
[1] = molecular target: T1, Retinoic acid receptor (Homo sapiens) (UniProt P13631+P10826+P10276); assay: Induction of RAR-mediated differentiation of human HL60 cells at 1 uM after 4 days by NBT assay; conditions: HL-60
T1 sequence (P10826 whole entry, looked up, one chain of several): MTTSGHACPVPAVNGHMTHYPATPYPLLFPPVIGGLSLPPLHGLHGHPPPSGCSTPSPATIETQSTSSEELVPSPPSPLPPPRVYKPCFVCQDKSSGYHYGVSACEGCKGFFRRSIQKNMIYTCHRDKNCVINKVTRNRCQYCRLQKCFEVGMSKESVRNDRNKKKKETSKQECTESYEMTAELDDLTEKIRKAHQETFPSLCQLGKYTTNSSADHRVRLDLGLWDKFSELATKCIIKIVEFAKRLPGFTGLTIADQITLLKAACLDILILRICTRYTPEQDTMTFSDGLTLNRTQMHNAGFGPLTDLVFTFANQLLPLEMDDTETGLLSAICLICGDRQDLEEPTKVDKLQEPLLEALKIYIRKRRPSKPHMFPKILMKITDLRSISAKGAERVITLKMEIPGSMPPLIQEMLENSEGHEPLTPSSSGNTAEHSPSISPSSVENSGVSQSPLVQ
T1 sequence (P13631 whole entry, looked up, one chain of several): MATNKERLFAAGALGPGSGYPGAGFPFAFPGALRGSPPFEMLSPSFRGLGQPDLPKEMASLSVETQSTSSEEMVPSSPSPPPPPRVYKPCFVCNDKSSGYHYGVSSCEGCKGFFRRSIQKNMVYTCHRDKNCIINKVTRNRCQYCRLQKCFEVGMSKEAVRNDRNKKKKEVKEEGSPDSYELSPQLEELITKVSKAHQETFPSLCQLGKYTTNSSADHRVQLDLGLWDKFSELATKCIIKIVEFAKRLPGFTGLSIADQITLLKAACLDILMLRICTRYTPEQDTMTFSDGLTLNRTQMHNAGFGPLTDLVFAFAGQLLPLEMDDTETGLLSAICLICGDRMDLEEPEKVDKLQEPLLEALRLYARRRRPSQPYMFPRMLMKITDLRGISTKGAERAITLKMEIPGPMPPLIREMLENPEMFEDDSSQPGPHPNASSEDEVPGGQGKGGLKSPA

[2] = molecular target: T2, Peroxisome proliferator-activated receptor delta (Homo sapiens) (UniProt Q03181); assay: Agonist activity at PPARdelta (unknown origin) expressed in HEK293 cells assessed as transcriptional activation at 1 to 25 uM after 40 hrs by luciferase reporter gene assay
T2 sequence (whole entry): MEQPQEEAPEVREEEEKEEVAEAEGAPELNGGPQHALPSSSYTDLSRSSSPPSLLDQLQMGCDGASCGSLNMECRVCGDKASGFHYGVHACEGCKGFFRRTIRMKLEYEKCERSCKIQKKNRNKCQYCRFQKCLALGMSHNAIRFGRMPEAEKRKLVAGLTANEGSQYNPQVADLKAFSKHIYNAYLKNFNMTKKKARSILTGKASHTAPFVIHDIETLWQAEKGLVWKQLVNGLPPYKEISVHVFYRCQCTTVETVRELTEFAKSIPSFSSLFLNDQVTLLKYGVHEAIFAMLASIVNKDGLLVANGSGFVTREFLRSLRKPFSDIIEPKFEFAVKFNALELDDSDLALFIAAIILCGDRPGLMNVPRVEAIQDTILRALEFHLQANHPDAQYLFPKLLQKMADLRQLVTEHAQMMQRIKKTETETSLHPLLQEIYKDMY

[3] = molecular target: T1, Retinoic acid receptor (Homo sapiens); assay: Activation of RAR in human HepG2 cells assessed as increase in CAR mRNA level at 10 uM after 24 hrs by RT-PCR analysis
F9 [4] = assay: Activation of RAR in mouse F9 cells assessed as increase in CYP26A1 mRNA level at 10 uM after 48 hrs by RT-PCR analysis in presence of RAR antagonist BMS493
[5] = molecular target: T3, Retinoic acid receptor alpha (Homo sapiens) (UniProt P10276); assay: Agonist activity at human RARalpha expressed in HEK293 cells assessed as transcriptional activation at 0.1 to 50 uM after 40 hrs by luciferase reporter gene assay
T3 sequence (whole entry): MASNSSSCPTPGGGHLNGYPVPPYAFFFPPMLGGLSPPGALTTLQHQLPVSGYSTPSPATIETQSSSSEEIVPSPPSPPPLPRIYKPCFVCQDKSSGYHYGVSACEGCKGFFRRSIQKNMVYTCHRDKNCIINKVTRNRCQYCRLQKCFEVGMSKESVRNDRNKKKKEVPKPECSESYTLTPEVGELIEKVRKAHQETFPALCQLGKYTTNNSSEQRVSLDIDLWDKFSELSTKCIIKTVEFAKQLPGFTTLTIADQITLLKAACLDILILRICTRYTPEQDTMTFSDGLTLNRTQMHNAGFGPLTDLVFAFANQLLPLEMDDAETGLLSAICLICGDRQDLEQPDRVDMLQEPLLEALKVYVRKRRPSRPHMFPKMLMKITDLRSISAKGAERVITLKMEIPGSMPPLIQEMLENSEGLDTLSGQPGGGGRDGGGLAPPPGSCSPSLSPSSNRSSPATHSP

[6] = molecular target: T4, Oxysterols receptor LXR-alpha (Homo sapiens) (UniProt Q13133); assay: Agonist activity at LXR-alpha (unknown origin) expressed in HEK293 cells assessed as transcriptional activation at 1 to 25 uM after 40 hrs by luciferase reporter gene assay
T4 sequence (whole entry): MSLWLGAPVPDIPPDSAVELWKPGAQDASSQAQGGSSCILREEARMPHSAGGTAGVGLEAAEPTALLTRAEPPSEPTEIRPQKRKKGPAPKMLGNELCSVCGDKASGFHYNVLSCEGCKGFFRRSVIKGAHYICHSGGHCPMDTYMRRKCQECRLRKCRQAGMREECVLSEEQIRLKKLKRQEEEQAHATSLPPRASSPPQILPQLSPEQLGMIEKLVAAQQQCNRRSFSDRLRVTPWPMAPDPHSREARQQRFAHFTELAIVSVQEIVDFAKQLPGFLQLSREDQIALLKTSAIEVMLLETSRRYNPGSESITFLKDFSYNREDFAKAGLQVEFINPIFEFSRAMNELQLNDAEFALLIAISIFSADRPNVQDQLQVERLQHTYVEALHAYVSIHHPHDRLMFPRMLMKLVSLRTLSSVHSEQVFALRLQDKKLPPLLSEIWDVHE

F9 [7] = assay: Activation of RAR in mouse F9 cells assessed as increase in CYP26A1 mRNA level at 10 uM after 48 hrs by RT-PCR analysis
[8] = molecular target: T5, Peroxisome proliferator-activated receptor gamma (Homo sapiens) (UniProt P37231); assay: Agonist activity at PPARgamma (unknown origin) expressed in HEK293 cells assessed as transcriptional activation at 1 to 25 uM after 40 hrs by luciferase reporter gene assay
T5 sequence (whole entry): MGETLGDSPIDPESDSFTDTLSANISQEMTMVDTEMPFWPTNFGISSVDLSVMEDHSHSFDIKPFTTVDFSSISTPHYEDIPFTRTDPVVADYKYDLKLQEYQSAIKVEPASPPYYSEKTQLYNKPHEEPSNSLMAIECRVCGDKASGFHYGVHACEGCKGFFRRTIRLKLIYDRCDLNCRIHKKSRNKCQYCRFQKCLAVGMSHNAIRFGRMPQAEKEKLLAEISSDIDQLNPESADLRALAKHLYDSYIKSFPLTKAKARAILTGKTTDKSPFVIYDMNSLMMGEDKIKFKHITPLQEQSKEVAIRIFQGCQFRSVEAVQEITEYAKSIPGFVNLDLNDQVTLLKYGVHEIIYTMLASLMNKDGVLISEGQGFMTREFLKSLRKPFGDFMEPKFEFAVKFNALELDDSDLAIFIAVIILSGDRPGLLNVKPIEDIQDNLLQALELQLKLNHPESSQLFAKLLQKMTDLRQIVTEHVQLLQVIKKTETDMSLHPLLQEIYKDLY

F9 [9] = assay: Activation of RAR in mouse F9 cells assessed as increase in CYP26A1 mRNA level at 0.01 uM after 48 hrs by RT-PCR analysis
[10] = molecular target: T3, Retinoic acid receptor alpha (Homo sapiens); assay: Agonist activity at human RARalpha expressed in HEK293 cells assessed as transcriptional activation at 1 to 100 uM after 40 hrs by luciferase reporter gene assay
[11] = molecular target: T3, Retinoic acid receptor alpha (Homo sapiens); assay: Agonist activity at human RARalpha expressed in HEK293 cells assessed as transcriptional activation at 1 to 100 uM after 40 hrs by luciferase reporter gene assay in presence of RAR antagonist LE135
[12] = molecular target: T6, Retinoic acid receptor RXR-alpha (Homo sapiens) (UniProt P19793); assay: Agonist activity at human RXRalpha expressed in HEK293 cells assessed as transcriptional activation up to 100 uM after 40 hrs by luciferase reporter gene assay
T6 sequence (whole entry): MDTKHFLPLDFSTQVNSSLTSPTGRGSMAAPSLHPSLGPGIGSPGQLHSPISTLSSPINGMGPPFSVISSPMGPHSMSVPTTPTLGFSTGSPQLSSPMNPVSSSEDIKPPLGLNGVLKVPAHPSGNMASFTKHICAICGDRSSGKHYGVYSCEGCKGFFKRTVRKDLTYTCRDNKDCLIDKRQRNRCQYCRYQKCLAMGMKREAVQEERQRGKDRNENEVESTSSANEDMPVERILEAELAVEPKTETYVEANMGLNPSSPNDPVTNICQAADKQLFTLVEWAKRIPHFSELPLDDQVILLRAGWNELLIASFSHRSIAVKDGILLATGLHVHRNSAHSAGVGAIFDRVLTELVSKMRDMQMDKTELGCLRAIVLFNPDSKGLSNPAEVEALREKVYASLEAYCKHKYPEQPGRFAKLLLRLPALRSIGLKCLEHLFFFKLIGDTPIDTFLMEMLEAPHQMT

[13] = molecular target: T1, Retinoic acid receptor (Homo sapiens); assay: Induction of RAR-mediated differentiation of human HL60 cells at 1 to 25 uM after 4 days by NBT assay; conditions: HL-60

In the case of `CC(C)C1=CC2=CC[C@@H]3[C@](C)(CCC[C@@]3(C)C(=O)O)[C@H]2CC1`, the Activity [1] is reported as “Active”, the Activity [2] is reported as “inactive” and the Activity [3] is reported as “Active”. The Activity (F9 [4]) was “inactive”, the Activity [5] was “Active” and the Activity [6] was “inactive”. For the same compound, the Activity (F9 [7]) was “Active” and the Activity [8] was “Active”.
For `C=C[C@@]1(C)C=C2CC[C@@H]3[C@](C)(CCC[C@@]3(C)C(=O)O)[C@H]2CC1`, the Activity [1] was “Active”, the Activity [2] was “inactive” and the Activity [3] was “Active”. For the same compound, the Activity (F9 [4]) was “inactive”, the Activity [5] was “Active” and the Activity [6] was “inactive”. The Activity (F9 [7]) was “Active” and the Activity [8] was “inactive”.
For `CC1=C(/C=C/C(C)=C/C=C/C(C)=C/C(=O)O)C(C)(C)CCC1`, the Activity [1] was “Active” and the Activity (F9 [9]) was “Active”.
For `COC(=O)[C@H](C)NC(=O)[C@]1(C)CCC[C@]2(C)c3ccc(C(C)C)cc3CC[C@@H]12`, the Activity [5] was “inactive”.
`C=C1C[C@@]23CC[C@H]4[C@@](C)(CCC[C@@]4(C)C(=O)O)[C@@H]2CC[C@]1(O)C3` was tested, and the Activity [5] was “inactive”.
`C=C[C@]1(C)C=C2CC[C@H]3[C@@](C)(CCC[C@@]3(C)C(=O)O)[C@@H]2CC1` was tested, and the Activity [10] was “Active”, the Activity [2] was “inactive” and the Activity [11] was “inactive”. For the same compound, the Activity [3] was “inactive”, the Activity (F9 [4]) was “inactive” and the Activity [12] was “inactive”. The Activity [5] was “Active”, the Activity [6] was “inactive” and the Activity (F9 [7]) was “Active”. The Activity [13] was “Active” and the Activity [8] was “inactive”.
